Data as given in patent US7348412B1, “Ouabain-specific monoclonal antibodies” (priority 1999, dated 2008).

What was measured:
Design in all cases: species or system A/J mice
1-10 mAb = conditions: free analogue 0.00035-200 μM inhibiting binding of mAb 1-10 to Oua-BGG
Protocol: (§1) Competition ELISA was used first to determine the relative affinity of each mAb for Oua and Dig. The 96-well PVC plates were coated with 50 μl of 5 μg/ml Oua-BGG in PBSA. First we determined the Ab concentration which was not in excess of immobilized antigen. Using the direct binding assay described above, the concentration of Ab at which 50% binding was achieved was ascertained. Inhibition of binding of Abs to Oua-BGG was determined by adding 25 μl Ab (concentrations as determined above) and 25 μl of free Oua (0.001-200 μM, 2-fold dilutions). Percent inhibition is the ratio (OD450 in the presence of 1% BSA−OD450 in the presence of Oua)/(OD450 in the presence of 1% BSA)×100. The relative affinity (IC50) is the Oua concentration that inhibits 50% of the binding of Ab to Oua-BGG.
(§2) Competition ELISA was used to determine the cross reactivity of the mAbs with different digitalis glycosides (Oua, Dig, gitoxin and digitoxin and their derivatives listed in Tables I and II) and with endogenous steroid hormones (cortisone, corticosterone and progesterone). In these assays binding of mAbs to Oua-BGG was determined in the presence or absence of various concentrations (0.00035-200 μM) of free digitalis glycosides and steroid hormones as described above.
(§3) Inhibition assays were performed to identify clones that produce mAbs, the binding of which to Oua-BGG could be inhibited with free Oua at μM concentrations. Abs were titrated in direct binding assays to determine the concentration equivalent to 35-50% binding to Oua-BGG. Binding of Abs to Oua-BGG was determined in the presence or absence of 0.00035-200 μM of free Oua. Ab binding was detected using HRP-goat anti-mouse Ab. […] Percentage inhibition was calculated as described in Materials and Methods.

26-10 mAb = conditions: free analogue 0.00035-200 μM inhibiting binding of mAb 26-10 to Oua-BGG
Protocol: as §1, §2, §3

7-1 mAb = conditions: free analogue 0.00035-200 μM inhibiting binding of mAb 7-1 to Oua-BGG
Protocol: as §1, §2, §3

5A12 mAb = conditions: free analogue 0.00035-200 μM inhibiting binding of mAb 5A12 to Oua-BGG
Protocol: as §1
as §2, with “above. […]” for “above.”

## C[C@H]1O[C@@H](O[C@H]2CC[C@]3(C=O)[C@H]4CC[C@]5(C)[C@@H](C6=CC(=O)OC6)CC[C@]5(O)[C@@H]4CC[C@]3(O)C2)C[C@H](O)[C@@H]1O [Helveticoside]
1-10 mAb
  IC50: 150 µM
26-10 mAb
  IC50: 0.2 µM
7-1 mAb
  IC50: 150 µM
5A12 mAb
  IC50: 150 µM

## CC(=O)O[C@H]1C[C@]2(O)[C@@H]3CC[C@@H]4C[C@@H](O[C@H]5C[C@H](O)[C@H](O[C@H]6C[C@H](O)[C@H](O[C@H]7C[C@H](O)[C@H](O)[C@@H](C)O7)[C@@H](C)O6)[C@@H](C)O5)CC[C@]4(C)[C@H]3CC[C@]2(C)[C@H]1C1=CC(=O)OC1 [16-acetylgitoxin]
1-10 mAb
  IC50: > 100 µM
26-10 mAb
  IC50: 0.5 µM
7-1 mAb
  IC50: > 100 µM
5A12 mAb
  IC50: > 100 µM

## C[C@]12C[C@@H](O)[C@H]3[C@@H](CC[C@]4(O)C[C@@H](O)C[C@@H](O)[C@]34CO)[C@@]1(O)CC[C@@H]2C1=CC(=O)OC1 [Ouabagenin]
1-10 mAb
  IC50: 30 µM
26-10 mAb
  IC50: 0.4 µM
7-1 mAb
  IC50: 30 µM
5A12 mAb
  IC50: 16 µM

## C[C@]12CCC(=O)C=C1CC[C@@H]1[C@@H]2C(=O)C[C@@]2(C)[C@H]1CC[C@]2(O)C(=O)CO [Cortisone]
1-10 mAb
  IC50: > 100 µM
26-10 mAb
  IC50: 100 µM
7-1 mAb
  IC50: > 100 µM
5A12 mAb
  IC50: > 100 µM

## C[C@H]1O[C@@H](O[C@H]2[C@@H](O)C[C@H](O[C@H]3[C@@H](O)C[C@H](O[C@H]4CC[C@@]5(C)[C@H](CC[C@@H]6[C@@H]5C[C@@H](O)[C@]5(C)[C@@H](C7=CC(=O)OC7)CC[C@]65O)C4)O[C@@H]3C)O[C@@H]2C)C[C@H](O)[C@@H]1O [Digoxin]
1-10 mAb
  IC50: > 100 µM
26-10 mAb
  IC50: 0.006 µM
7-1 mAb
  IC50: > 100 µM
5A12 mAb
  IC50: > 100 µM

## C[C@H]1O[C@@H](O[C@H]2[C@@H](O)C[C@H](O[C@H]3[C@@H](O)C[C@H](O[C@H]4CC[C@@]5(C)[C@H](CC[C@@H]6[C@@H]5CC[C@]5(C)[C@@H](C7=CC(=O)OC7)[C@@H](O)C[C@]65O)C4)O[C@@H]3C)O[C@@H]2C)C[C@H](O)[C@@H]1O [Gitoxin]
1-10 mAb
  IC50: > 100 µM
26-10 mAb
  IC50: 1.5 µM
7-1 mAb
  IC50: > 100 µM
5A12 mAb
  IC50: 100 µM

## C[C@@H]1O[C@@H](O[C@H]2CC[C@]3(C=O)[C@H]4CC[C@]5(C)[C@@H](C6=CC(=O)OC6)CC[C@]5(O)[C@@H]4CC[C@]3(O)C2)[C@H](O)[C@H](O)[C@H]1O [Convallatoxin]
1-10 mAb
  IC50: 3 µM
26-10 mAb
  IC50: 0.1 µM
7-1 mAb
  IC50: 3 µM
5A12 mAb
  IC50: 2 µM

## CO[C@@H]1[C@H](O)[C@@H](O[C@@H]2C[C@H]3CC[C@@H]4[C@H](CC[C@]5(C)[C@@H](C6=CC(=O)OC6)CC[C@]45O)[C@@]3(C)[C@H](O)C2)O[C@@H](C)[C@@H]1O [Acovenoside]
1-10 mAb
  IC50: 8 µM
26-10 mAb
  IC50: 0.2 µM
7-1 mAb
  IC50: 8 µM
5A12 mAb
  IC50: 5 µM

## C[C@H]1O[C@@H](O[C@H]2[C@@H](O)C[C@H](O[C@H]3[C@@H](O)C[C@H](O[C@H]4CC[C@@]5(C)[C@H](CC[C@@H]6[C@@H]5CC[C@]5(C)[C@@H](C7=CC(=O)OC7)CC[C@]65O)C4)O[C@@H]3C)O[C@@H]2C)C[C@H](O)[C@@H]1O [Digitoxin]
1-10 mAb
  IC50: 3 µM
26-10 mAb
  IC50: 0.02 µM
7-1 mAb
  IC50: 3 µM
5A12 mAb
  IC50: 3 µM

## CC(=O)OC1CCC2(C)C(CCC3C2CCC2(C)C(C4=CC(=O)OC4)C(OC(C)=O)CC32O)C1 (stereo not shown) [Gitoxigenin-3,16-diacetate]
1-10 mAb
  IC50: > 100 µM
26-10 mAb
  IC50: > 100 µM
7-1 mAb
  IC50: > 100 µM
5A12 mAb
  IC50: > 100 µM

## CO[C@H]1C[C@H](O[C@H]2CC[C@@]3(C)[C@H](CC[C@@H]4[C@@H]3CC[C@]3(C)[C@@H](C5=CC(=O)OC5)[C@@H](OC(C)=O)C[C@]43O)C2)O[C@@H](C)[C@@H]1O [Oleandrin]
1-10 mAb
  IC50: > 100 µM
26-10 mAb
  IC50: > 100 µM
7-1 mAb
  IC50: > 100 µM
5A12 mAb
  IC50: > 100 µM

## C[C@]12CC[C@H](O)C[C@H]1CC[C@@H]1[C@@H]2CC[C@]2(C)[C@@H](C3=CC(=O)OC3)CC[C@]12O [Digitoxigenin]
1-10 mAb
  IC50: 4 µM
26-10 mAb
  IC50: 0.04 µM
7-1 mAb
  IC50: 4 µM
5A12 mAb
  IC50: 4 µM

## C[C@]12C[C@H](O)[C@H]3[C@@H](CCC4=CC(=O)CC[C@@]43C)[C@@H]1CC[C@@H]2C(=O)CO [Corticosterone]
1-10 mAb
  IC50: > 100 µM
26-10 mAb
  IC50: > 100 µM
7-1 mAb
  IC50: > 100 µM
5A12 mAb
  IC50: > 100 µM

## CC(=O)O[C@H]1CC[C@@]2(C)[C@H](CC[C@@H]3[C@@H]2C[C@@H](OC(C)=O)[C@]2(C)[C@@H](C4=CC(=O)OC4)CC[C@]32O)C1 [Digoxigenin-3,12-diacetate]
1-10 mAb
  IC50: > 100 µM
26-10 mAb
  IC50: 6 µM
7-1 mAb
  IC50: > 100 µM
5A12 mAb
  IC50: > 100 µM

## C[C@]12CC[C@H]3[C@@H](CC[C@]4(O)C[C@@H](O)CC[C@]34C=O)[C@@]1(O)CC[C@@H]2C1=CC(=O)OC1 [Strophanthidin]
1-10 mAb
  IC50: 10 µM
26-10 mAb
  IC50: 0.2 µM
7-1 mAb
  IC50: 10 µM
5A12 mAb
  IC50: 4 µM

## C[C@@H]1O[C@@H](O[C@H]2C[C@@H](O)[C@]3(CO)[C@H]4[C@H](O)C[C@]5(C)[C@@H](C6=CC(=O)OC6)CC[C@]5(O)[C@@H]4CC[C@]3(O)C2)[C@H](O)[C@H](O)[C@H]1O [Ouabain]
1-10 mAb
  IC50: 25 µM
26-10 mAb
  IC50: 0.37 µM
7-1 mAb
  IC50: 20 µM
5A12 mAb
  IC50: 10 µM

## CC(=O)[C@H]1CC[C@H]2[C@@H]3CCC4=CC(=O)CC[C@]4(C)[C@H]3CC[C@]12C [Progesterone]
1-10 mAb
  IC50: > 100 µM
26-10 mAb
  IC50: 2 µM
7-1 mAb
  IC50: > 100 µM
5A12 mAb
  IC50: > 100 µM

## CC(=O)O[C@H]1CC[C@]2(C=O)[C@H]3CC[C@]4(C)[C@@H](C5=CC(=O)OC5)CC[C@]4(O)[C@@H]3CC[C@]2(O)C1 [Acetylstrophanthidin]
1-10 mAb
  IC50: 6 µM
26-10 mAb
  IC50: 0.2 µM
7-1 mAb
  IC50: 6 µM
5A12 mAb
  IC50: 2 µM

## CC(=O)O[C@H]1C[C@]2(O)[C@@H]3CC[C@@H]4C[C@@H](O)CC[C@]4(C)[C@H]3CC[C@]2(C)[C@H]1C1=CC(=O)OC1 [Oleandrigenin]
1-10 mAb
  IC50: > 100 µM
26-10 mAb
  IC50: > 100 µM
7-1 mAb
  IC50: > 100 µM
5A12 mAb
  IC50: > 100 µM
